From BindingDB's records for patent US20260008775 (Genentech, 2026) come the findings set out here.

For the test, the target named is 3-beta-hydroxysteroid-Delta(8),Delta(7)-isomerase (Homo sapiens, UniProt Q15125). Briefly: Determination of Binding Affinity to EBP-7-Dehydrocholesterol Reductase. Here is the method:
The plates were sealed and incubated at 4° C. for 3 hrs. Then, the plates were washed with ice-cold assay buffer 3 times. […] Following this, the plate was centrifuged at 1000 rpm for 30 secs. The plate was then sealed and agitated at 600 rpm at 22° C. for 5 min, and then incubated at 22° C. for 3 hrs. The incubation was stopped by transferring the binding solution to the pre-treated UniFilter-96 GF/B plate, vacuum filtrated, and then washed four times with ice-cold assay buffer. Following this, the plates were dried at 37° C. for 45 min. The plates were then sealed at the bottom. 40 µl/well of scintillation cocktail was added to the plates.

Chain of 3-beta-hydroxysteroid-Delta(8),Delta(7)-isomerase (Q15125 whole entry): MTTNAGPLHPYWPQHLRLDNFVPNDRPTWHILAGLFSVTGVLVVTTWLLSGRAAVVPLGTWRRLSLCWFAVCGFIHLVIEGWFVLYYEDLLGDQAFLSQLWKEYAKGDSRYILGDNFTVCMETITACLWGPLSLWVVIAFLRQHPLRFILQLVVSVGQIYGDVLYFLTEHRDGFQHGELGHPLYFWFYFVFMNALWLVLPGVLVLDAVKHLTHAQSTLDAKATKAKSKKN

The term Ki denotes a dissociation constant, usually derived from enzyme kinetics or from competition with a known ligand. Low values mean tighter binding, high ones weaker binding. `CC(C)n1nc(-c2cncc(C(F)(F)F)c2)cc1[C@H]1[C@@H]2C[C@@H](N3CCOCC3)C[C@@H]21` [US20260008775, Example Table4.2] registered a Ki of 0.188 µM.
